The results in this text go back to patent publication US10821142B2, “Cancer treatment and diagnosis” (priority 2015, dated 2020).

Molecules are shown by their SMILES.

Format in all cases: cell-based, human
For one test, the system named is cGAS expression. As to the kind of experiment: cGAS expression (qPCR) in cGAS negative colon cancer cells after epigenetic drug treatment. As to conditions: LS174T, SW480, SW1417, SW48, HT116; 5 days; rescued: SW480 and HT116. The protocol:
FIGS. 5A-5F show STING activation and cytosolic DNA pathway in colon cancer cells were mostly defective: A series of colon cancer cells as well as normal cell controls were either mock transfected or transfected with dsDNA90 at 3 μg/ml for 3 hours, and were analyzed by Immunofluorescence Microscopy for STING translocation (FIG. 5A), IRF3 translocation (FIG. 5B), and p65 translocation (FIG. 5C). (FIG. 5D) Cells, same as above, were either mock transfected or transfected with dsDNA90 at 3 μg/ml for indicated time periods followed by immunoblot analysis for STING phosphorylation as well as phosphorylation of TBK1, IRF3 and p65. β-actin was used as loading control. (FIG. 5E) Cells, same as above, were analyzed by qPCR for cGAS expression. (FIG. 5F) Cells that have undetectable level of cGAS in E were treated with 1 μM 5-azacytidine for […], followed by qPCR analysis for cGAS expression. […] Error bars indicate s.d.
FIGS. 15A-15E show cGAS expression is suppressed in many human colon cancer cell lines and can be partially recapitulated through DNA demethylation. […]
To complement the above study, the expression of cGAS in the colon cancer cell-lines was examined. […] Given these findings, examination of the expression of cGAS in 47 human colon cancers at various stages of tumorigenesis was analyzed (FIG. 13C). Expression of cGAS was low to undetectable in approximately 30% of cells analyzed. […]
On the technique in general: Quantitative PCR measures a nucleic acid by following its amplification.

Test [1] relates to STING-dependent dsDNA signaling. As to the kind of experiment: STING signal activation by dsDNA90 in colon cancer cells after demethylation. The following applies: for phosphorylation of TBK1 and IRF3 after dsDNA: 5AZADC 5 days then dsDNA90 3 μg/ml.
Test [2] concerns STING and cGAS expression. The test is described as follows: STING and cGAS expression in melanoma cells after 5AZADC (qPCR, immunoblot, RNA FISH). As to conditions: 5 days. The protocol:
(§1) FIGS. 30A-30G show DNA demethylation partially recapitulated STING and cGAS expression in human melanoma cell lines. FIG. 30A, qPCR analysis of cGAS expression in indicated human melanoma cells mock treated or treated with 1 μM […] (5AZADC) for 5 days. FIG. 30B, Immunoblot analysis of STING in indicated human melanoma cells treated same as above. FIG. 30C, RNA FISH analysis of STING and cGAS in cells (same as above) treated with 5AZADC same as above. Representative images are shown at 1260×. Bar size, 400 nm. qPCR analysis of IFNB (FIG. 30D) and CXCL10 (FIG. 30E) in cells (same as above) treated with 5AZADC followed by dsDNA transfection at 3 μg/ml dsDNA90 for 3 hours. Immunofluorescence Microscopy analysis of IRF3 translocation (FIG. 30F) and STING translocation (FIG. 30G) in indicated cells treated same as in FIG. 30D. Representative images are shown at 1260×. Bar size, 500 nm.
In view of this, it was examined whether STING or cGAS expression was suppressed by epigenetic processes, such as by hypermethylation of the promoter regions (20, 21). Indeed, databank analysis indicated the presence of considerable CpG islands within the STING and cGAS promoter region. As such, melanoma cells lacking either STING or cGAS expression were treated with the de-methylating agent 5-Aza-2′-deoxycytidine (5AZADC) for 5 days and evaluated recapitulation of STING or cGAS expression. […] Therefore DNA hypermethylation is involved in silencing STING or cGAS expression in some melanoma cells (A375 and MeWo). However it is not yet clear why expression levels of STING are muted in the remainder melanoma cells (G361, SK-MEL-5). Other epigenetic modifications such as histone modifications or other transcription regulator factors such as miRNA could be involved in suppressing STING and/or cGAS expression (Jin et al., 2013, Yarbrough et al., 2014). To determine if reconstitution of STING/cGAS expression rescued STING-dependent dsDNA signaling, IFNB and CXCL10 induction was examined in 5AZADC treated melanoma cells following dsDNA stimulation. […] Thus, demethylating agents may be able to partially rescue STING-dependent innate immune gene induction in select melanoma cells.
Equal amounts of proteins were resolved on sodium dodecyl sulfate (SDS)-Polyacrylamide gels and then transferred to polyvinylidene fluoride (PVDF) membranes (Millipore). After blocking with 5% Blocking Reagent, membranes were incubated with various primary antibodies (and appropriate secondary antibodies). The image was resolved using an enhanced chemiluminescence system ECL (Thermo Scientific) and detected by autoradiography (Kodak). Antibodies: rabbit polyclonal antibody against STING was developed in our laboratory as described previously in Ishikawa et al, 2008; other antibodies were obtained from following sources: β-actin (Sigma Aldrich), p-IRF3 (Cell Signaling), IRF3 (Santa Cruz Biotechnology), p-p65 (Cell Signaling), p65 (Cell Signaling), p-TBK1 (Cell Signaling), TBK1 (Abcam), cGAS (Cell Signaling).
Total RNA was reverse-transcribed using QuantiTect Reverse Transcription Kit (Qiagen). Real-time PCR was performed with the TaqMan gene Expression Assay (Applied Biosystems).
STING and cGAS RNA probed was custom designed by ACD and RNA in situ Hybridization was performed using RNAscope® Multiplex Fluorescent Reagent Kit for cultured cells and 2-plex RNAscope® Reagent Kit for FFPE cells and tissue following the manufacturer's instruction.

Test [3] deals with STING-dependent dsDNA signaling. As to the kind of experiment: IFNB and CXCL10 induction by dsDNA in 5AZADC treated melanoma cells. The protocol:
as §1
In view of this, it was examined whether STING or cGAS expression was suppressed by epigenetic processes, such as by hypermethylation of the promoter regions (20, 21). Indeed, databank analysis indicated the presence of considerable CpG islands within the STING and cGAS promoter region. As such, melanoma cells lacking either STING or cGAS expression were treated with the de-methylating agent 5-Aza-2′-deoxycytidine (5AZADC) for 5 days and evaluated recapitulation of STING or cGAS expression. […] Therefore DNA hypermethylation is involved in silencing STING or cGAS expression in some melanoma cells (A375 and MeWo). However it is not yet clear why expression levels of STING are muted in the remainder melanoma cells (G361, SK-MEL-5). Other epigenetic modifications such as histone modifications or other transcription regulator factors such as miRNA could be involved in suppressing STING and/or cGAS expression (Jin et al., 2013, Yarbrough et al., 2014). […]
Total RNA was reverse-transcribed using QuantiTect Reverse Transcription Kit (Qiagen). […]

As for `Nc1ncn([C@H]2C[C@H](O)[C@@H](CO)O2)c(=O)n1` [5AZADC, 5-Aza-2′-deoxycytidine], the “cells in which cGAS expression was rescued” value in the test with cGAS expression was 2 of the 5. Also, the “expression of type I IFN and IL-1β after dsDNA” value in test [1] (5AZADC treated SW480 and HT116, dsDNA90 3 μg/ml for 3 hours) was “modest expression of type I IFN and IL-1β”. Moreover, the “phosphorylation of TBK1 and IRF3 after dsDNA” value in test [1] (LS174T (cGAS not rescued)) was “not LS174T cells regained phosphorylation of TBK1 and IRF3”; in test [1] (SW480, HT116 (cGAS rescued)) it was “regained phosphorylation of TBK1 and IRF3”. The cGAS expression entry in test [2] (A375 cells) is on record as “cGAS expression was recovered”; in test [2] (SK-MEL-5 cells), “partially restored”; in test [2] (SK-MEL-24 cells), “did not seem to affect cGAS expression level”. Further, the STING expression entry in test [2] (G361 and SK-MEL-5 cells) is “STING remained absent”; in test [2] (MeWo cells, immunoblot and RNA FISH) it was “STING expression was restored”. Moreover, the “STING function following dsDNA stimulation” value in test [3] (G361 or SK-MEL-5 cells) is listed as “no STING function was observed”. The “IFNB induction following dsDNA stimulation” value in test [3] (STING rescued MeWo cells) was “modest expression of IFNB”. In test [3] (cGAS rescued A375 cells), the “IFNB and CXCL10 induction following dsDNA stimulation” value was “Induction of both IFNB and CXCL10 production was observed”.
